Reference: PMC6429214, “Design, Synthesis and Biological Evaluation of Isoxazole-Based CK1 Inhibitors Modified with Chiral Pyrrolidine Scaffolds” (Molecules, 2019)

How the values were obtained:
Assay in all cases: 33PanQinase panel
Assay type in all cases: biochemical
ACV-R1B = target: T1, ACV-R1B (Homo sapiens, UniProt P36896); settings: read-out: Residual Activity (%)
T1 construct: purchased ProQinase
Procedure, shortened: (§1)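 Kinases were screened with the inhibitor at a single concentration of 1 µM. Activity was measured radiometrically with 33P, and each reaction mix contained 1% DMSO. Data are expressed as percentage residual activity compared with DMSO control.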

AKT3 aa106-479 = target: T2, AKT3 aa106-479 (Homo sapiens, UniProt Q9Y243); settings: AKT3 aa106-479, 1 µM; read-out: Residual Activity (%)
T2 construct: purchased ProQinase
Procedure, shortened: as §1

AMPK-alpha1 aa1-550 = target: T3, AMPK-alpha1 aa1-550 (Homo sapiens, UniProt Q13131); settings: AMPK-alpha1 aa1-550, 1 µM; read-out: Residual Activity (%)
T3 construct: purchased ProQinase
Procedure, shortened: as §1

BRK = target: T4, BRK (Homo sapiens, UniProt Q13882); settings: read-out: Residual Activity (%)
T4 construct: purchased ProQinase
Procedure, shortened: as §1

BTK = target: T5, BTK (Homo sapiens, UniProt Q06187); settings: read-out: Residual Activity (%)
T5 construct: purchased ProQinase
T5 sequence (Q06187 whole entry): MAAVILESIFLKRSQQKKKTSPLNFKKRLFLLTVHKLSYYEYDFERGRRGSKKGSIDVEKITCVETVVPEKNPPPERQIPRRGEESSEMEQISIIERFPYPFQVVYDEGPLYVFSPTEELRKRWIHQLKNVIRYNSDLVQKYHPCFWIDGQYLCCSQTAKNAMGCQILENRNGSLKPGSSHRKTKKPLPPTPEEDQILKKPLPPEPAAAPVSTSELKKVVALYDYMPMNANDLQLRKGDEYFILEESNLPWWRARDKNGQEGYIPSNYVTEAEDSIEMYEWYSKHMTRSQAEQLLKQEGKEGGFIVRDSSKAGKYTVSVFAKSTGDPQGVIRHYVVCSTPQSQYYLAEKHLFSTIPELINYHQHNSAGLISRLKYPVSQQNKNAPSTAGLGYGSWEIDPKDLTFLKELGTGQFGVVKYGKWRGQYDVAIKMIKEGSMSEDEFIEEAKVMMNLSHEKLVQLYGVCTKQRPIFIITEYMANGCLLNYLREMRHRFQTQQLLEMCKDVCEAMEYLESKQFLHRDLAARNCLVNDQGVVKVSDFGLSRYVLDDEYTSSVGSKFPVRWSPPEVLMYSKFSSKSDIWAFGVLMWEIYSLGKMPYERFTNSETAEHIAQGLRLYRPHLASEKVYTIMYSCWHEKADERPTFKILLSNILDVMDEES
Procedure, shortened: as §1

CDK5/p35NCK = target: T6, CDK5/p35NCK (Homo sapiens, UniProt Q00535); settings: read-out: Residual Activity (%)
T6 construct: purchased ProQinase
T6 sequence (Q00535 whole entry): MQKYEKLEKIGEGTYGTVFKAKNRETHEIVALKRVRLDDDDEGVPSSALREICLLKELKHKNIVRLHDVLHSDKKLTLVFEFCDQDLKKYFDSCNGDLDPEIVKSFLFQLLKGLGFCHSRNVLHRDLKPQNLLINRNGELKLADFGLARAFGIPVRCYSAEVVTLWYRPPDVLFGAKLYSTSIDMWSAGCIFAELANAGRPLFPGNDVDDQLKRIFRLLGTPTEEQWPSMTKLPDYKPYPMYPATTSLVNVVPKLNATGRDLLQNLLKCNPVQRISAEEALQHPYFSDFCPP
T6 sequence (Q15078 whole entry partner): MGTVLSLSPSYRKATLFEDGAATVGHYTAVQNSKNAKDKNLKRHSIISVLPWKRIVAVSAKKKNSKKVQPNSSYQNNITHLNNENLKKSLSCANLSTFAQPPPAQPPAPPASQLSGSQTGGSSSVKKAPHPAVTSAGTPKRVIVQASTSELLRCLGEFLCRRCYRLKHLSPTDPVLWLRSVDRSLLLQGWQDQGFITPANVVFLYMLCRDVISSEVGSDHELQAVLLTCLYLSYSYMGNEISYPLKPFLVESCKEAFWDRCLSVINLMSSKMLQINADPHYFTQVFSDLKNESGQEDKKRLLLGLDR
Procedure, shortened: as §1

CDK6/CycD3 = target: T7, CDK6/CycD3 (Homo sapiens, UniProt Q00534); settings: CDK6/CycD3, 1 µM; read-out: Residual Activity (%)
T7 construct: purchased ProQinase
T7 sequence (Q00534 whole entry): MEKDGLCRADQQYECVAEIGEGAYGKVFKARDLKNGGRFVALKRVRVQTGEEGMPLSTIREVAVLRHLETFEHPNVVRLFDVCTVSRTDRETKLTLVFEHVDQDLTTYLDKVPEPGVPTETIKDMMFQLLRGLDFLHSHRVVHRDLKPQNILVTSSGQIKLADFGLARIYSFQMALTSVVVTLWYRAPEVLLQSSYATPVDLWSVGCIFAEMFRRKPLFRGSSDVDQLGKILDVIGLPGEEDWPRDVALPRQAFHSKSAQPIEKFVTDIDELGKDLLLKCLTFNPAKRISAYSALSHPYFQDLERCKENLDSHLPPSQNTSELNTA
T7 sequence (P30281 whole entry partner): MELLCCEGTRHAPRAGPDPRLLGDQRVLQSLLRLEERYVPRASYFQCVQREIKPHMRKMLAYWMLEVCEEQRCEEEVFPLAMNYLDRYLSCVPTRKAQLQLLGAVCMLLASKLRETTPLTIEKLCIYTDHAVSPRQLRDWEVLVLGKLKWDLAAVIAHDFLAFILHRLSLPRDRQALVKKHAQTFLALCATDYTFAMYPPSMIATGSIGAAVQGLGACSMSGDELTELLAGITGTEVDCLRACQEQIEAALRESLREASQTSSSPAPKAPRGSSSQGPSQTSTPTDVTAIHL
Procedure, shortened: as §1

CK2-alpha1 = target: T8, CK2-alpha1 (Homo sapiens, UniProt P68400); settings: CK2-alpha1, 1 µM; read-out: Residual Activity (%)
T8 construct: purchased ProQinase
T8 sequence (P68400 whole entry): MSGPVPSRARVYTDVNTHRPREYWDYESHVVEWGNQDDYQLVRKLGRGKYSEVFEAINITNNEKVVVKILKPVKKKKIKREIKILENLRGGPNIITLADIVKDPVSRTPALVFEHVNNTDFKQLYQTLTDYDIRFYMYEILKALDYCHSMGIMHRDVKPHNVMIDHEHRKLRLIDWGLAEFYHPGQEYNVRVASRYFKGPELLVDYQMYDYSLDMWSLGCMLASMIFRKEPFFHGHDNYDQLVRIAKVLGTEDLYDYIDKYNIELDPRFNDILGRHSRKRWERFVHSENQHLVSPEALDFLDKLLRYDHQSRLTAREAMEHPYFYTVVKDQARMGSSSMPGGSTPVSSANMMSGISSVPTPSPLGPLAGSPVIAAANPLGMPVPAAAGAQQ
Procedure, shortened: as §1

DAPK2 = target: T9, DAPK2 (Homo sapiens, UniProt Q9UIK4); settings: DAPK2, 1 µM; read-out: Residual Activity (%)
T9 construct: purchased ProQinase
Procedure, shortened: as §1

DYRK2 = target: T10, DYRK2 (Homo sapiens, UniProt Q92630); settings: DYRK2, 1 µM; read-out: Residual Activity (%)
T10 construct: purchased ProQinase
Procedure, shortened: as §1

EGF-R = target: T11, EGF-R (Homo sapiens, UniProt P00533); settings: read-out: Residual Activity (%)
T11 construct: purchased ProQinase
Procedure, shortened: as §1

EPHB1 = target: T12, EPHB1 (Homo sapiens, UniProt P54762); settings: EPHB1, 1 µM; read-out: Residual Activity (%)
T12 construct: purchased ProQinase
Procedure, shortened: as §1

FRK = target: T13, FRK (Homo sapiens, UniProt P42685); settings: read-out: Residual Activity (%)
T13 construct: purchased ProQinase
Procedure, shortened: as §1

HIPK1 = target: T14, HIPK1 (Homo sapiens, UniProt Q86Z02); settings: HIPK1, 1 µM; read-out: Residual Activity (%)
T14 construct: purchased ProQinase
Procedure, shortened: as §1

MAPKAPK2 = target: T15, MAPKAPK2 (Homo sapiens, UniProt P49137); settings: MAPKAPK2, 1 µM; read-out: Residual Activity (%)
T15 construct: purchased ProQinase
Procedure, shortened: as §1

MKK6 S207D/T211D** = target: T16, MKK6 S207D/T211D** (Homo sapiens, UniProt P52564, S207D/T211D); settings: read-out: Residual Activity (%)
T16 construct: purchased ProQinase
Procedure, shortened: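 Single dose, 1 µM. Radiometric 33P kinase activity assay with final DMSO at 1%; values give residual activity as a percentage of control.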

MST2 = target: T17, MST2 (Homo sapiens, UniProt Q13188); settings: MST2, 1 µM; read-out: Residual Activity (%)
T17 construct: purchased ProQinase
T17 sequence (Q13188 whole entry): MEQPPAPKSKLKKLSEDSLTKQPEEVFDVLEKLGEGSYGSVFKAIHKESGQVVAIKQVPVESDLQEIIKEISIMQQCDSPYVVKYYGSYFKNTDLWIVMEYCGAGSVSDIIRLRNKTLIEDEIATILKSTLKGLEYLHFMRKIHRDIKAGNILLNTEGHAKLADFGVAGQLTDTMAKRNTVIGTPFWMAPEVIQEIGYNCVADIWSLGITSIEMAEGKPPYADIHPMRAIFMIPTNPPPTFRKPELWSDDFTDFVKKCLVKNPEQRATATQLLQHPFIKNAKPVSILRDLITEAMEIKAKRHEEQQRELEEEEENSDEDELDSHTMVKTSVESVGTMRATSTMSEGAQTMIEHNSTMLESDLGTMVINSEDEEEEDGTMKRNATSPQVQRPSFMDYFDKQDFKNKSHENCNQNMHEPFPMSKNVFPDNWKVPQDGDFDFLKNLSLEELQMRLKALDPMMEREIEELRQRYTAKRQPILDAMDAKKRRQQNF
Procedure, shortened: as §1

PAK4 = target: T18, PAK4 (Homo sapiens, UniProt O96013); settings: PAK4, 1 µM; read-out: Residual Activity (%)
T18 construct: purchased ProQinase
Procedure, shortened: as §1

PDK1 = target: T19, PDK1 (Homo sapiens, UniProt O15530); settings: PDK1, 1 µM; read-out: Residual Activity (%)
T19 construct: purchased ProQinase
T19 sequence (O15530 whole entry): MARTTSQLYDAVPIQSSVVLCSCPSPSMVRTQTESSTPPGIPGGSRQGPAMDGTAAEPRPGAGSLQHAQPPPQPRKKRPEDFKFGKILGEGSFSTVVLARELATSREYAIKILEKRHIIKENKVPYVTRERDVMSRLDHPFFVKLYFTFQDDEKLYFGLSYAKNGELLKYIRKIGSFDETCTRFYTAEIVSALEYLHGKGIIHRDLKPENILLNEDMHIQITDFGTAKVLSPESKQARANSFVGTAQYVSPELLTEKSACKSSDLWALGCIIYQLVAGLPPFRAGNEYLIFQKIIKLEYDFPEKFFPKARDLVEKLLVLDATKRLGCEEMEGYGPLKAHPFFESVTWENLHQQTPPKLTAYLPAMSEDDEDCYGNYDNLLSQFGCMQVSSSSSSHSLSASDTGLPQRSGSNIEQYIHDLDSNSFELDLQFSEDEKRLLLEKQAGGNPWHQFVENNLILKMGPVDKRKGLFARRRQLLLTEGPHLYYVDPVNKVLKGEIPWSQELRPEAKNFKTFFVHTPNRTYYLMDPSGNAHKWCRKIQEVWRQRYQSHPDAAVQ
Procedure, shortened: as §1

PKC-epsilon = target: T20, PKC-epsilon (Homo sapiens, UniProt Q02156); settings: read-out: Residual Activity (%)
T20 construct: purchased ProQinase
Procedure, shortened: as §1

PKC-eta = target: T21, PKC-eta (Homo sapiens, UniProt P24723); settings: read-out: Residual Activity (%)
T21 construct: purchased ProQinase
T21 sequence (P24723 whole entry): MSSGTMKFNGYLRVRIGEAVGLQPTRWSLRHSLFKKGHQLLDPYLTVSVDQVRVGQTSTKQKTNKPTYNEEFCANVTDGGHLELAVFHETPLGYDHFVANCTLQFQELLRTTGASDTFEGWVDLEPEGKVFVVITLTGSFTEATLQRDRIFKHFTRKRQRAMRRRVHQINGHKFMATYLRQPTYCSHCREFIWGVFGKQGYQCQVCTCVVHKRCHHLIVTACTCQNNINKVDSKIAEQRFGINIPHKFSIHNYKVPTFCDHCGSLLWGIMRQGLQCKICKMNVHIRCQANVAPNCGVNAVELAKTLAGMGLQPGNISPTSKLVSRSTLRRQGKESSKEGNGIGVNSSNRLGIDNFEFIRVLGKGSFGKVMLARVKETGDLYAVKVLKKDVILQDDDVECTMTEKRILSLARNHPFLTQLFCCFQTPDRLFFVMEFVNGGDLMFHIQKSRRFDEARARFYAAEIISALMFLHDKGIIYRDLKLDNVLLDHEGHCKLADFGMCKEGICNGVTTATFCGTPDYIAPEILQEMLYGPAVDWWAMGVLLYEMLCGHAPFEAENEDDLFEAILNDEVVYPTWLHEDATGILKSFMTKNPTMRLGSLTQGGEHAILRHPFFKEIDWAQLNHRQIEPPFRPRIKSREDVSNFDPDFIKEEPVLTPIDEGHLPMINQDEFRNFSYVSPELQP
Procedure, shortened: as §1

PLK1 = target: T22, PLK1 (Homo sapiens, UniProt P53350); settings: PLK1, 1 µM; read-out: Residual Activity (%)
T22 construct: purchased ProQinase
Procedure, shortened: as §1

SGK2 = target: T23, SGK2 (Homo sapiens, UniProt Q9HBY8); settings: SGK2, 1 µM; read-out: Residual Activity (%)
T23 construct: purchased ProQinase
Procedure, shortened: as §1

SIK1 = target: T24, SIK1 (Homo sapiens, UniProt P57059); settings: SIK1, 1 µM; read-out: Residual Activity (%)
T24 construct: purchased ProQinase
Procedure, shortened: as §1

STK25 = target: T25, STK25 (Homo sapiens, UniProt O00506); settings: STK25, 1 µM; read-out: Residual Activity (%)
T25 construct: purchased ProQinase
Procedure, shortened: as §1

TGFB-R1 = target: T26, TGFB-R1 (Homo sapiens, UniProt P36897); settings: TGFB-R1, 1 µM; read-out: Residual Activity (%)
T26 construct: purchased ProQinase
Procedure, shortened: as §1

TSK2 = target: T27, TSK2 (Homo sapiens, UniProt Q96PF2); settings: TSK2, 1 µM; read-out: Residual Activity (%)
T27 construct: purchased ProQinase
T27 sequence (Q96PF2 whole entry): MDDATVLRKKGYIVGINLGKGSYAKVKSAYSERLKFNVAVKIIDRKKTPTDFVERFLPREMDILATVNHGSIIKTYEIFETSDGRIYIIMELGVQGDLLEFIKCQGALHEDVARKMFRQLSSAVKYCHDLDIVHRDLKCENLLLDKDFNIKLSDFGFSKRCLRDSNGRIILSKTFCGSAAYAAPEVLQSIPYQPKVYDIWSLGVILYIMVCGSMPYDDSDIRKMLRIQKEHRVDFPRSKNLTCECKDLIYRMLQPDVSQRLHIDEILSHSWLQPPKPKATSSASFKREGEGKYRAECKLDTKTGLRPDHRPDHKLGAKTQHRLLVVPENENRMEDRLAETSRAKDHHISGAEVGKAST
Procedure, shortened: as §1

TXK = target: T28, TXK (Homo sapiens, UniProt P42681); settings: read-out: Residual Activity (%)
T28 construct: purchased ProQinase
T28 sequence (P42681 whole entry): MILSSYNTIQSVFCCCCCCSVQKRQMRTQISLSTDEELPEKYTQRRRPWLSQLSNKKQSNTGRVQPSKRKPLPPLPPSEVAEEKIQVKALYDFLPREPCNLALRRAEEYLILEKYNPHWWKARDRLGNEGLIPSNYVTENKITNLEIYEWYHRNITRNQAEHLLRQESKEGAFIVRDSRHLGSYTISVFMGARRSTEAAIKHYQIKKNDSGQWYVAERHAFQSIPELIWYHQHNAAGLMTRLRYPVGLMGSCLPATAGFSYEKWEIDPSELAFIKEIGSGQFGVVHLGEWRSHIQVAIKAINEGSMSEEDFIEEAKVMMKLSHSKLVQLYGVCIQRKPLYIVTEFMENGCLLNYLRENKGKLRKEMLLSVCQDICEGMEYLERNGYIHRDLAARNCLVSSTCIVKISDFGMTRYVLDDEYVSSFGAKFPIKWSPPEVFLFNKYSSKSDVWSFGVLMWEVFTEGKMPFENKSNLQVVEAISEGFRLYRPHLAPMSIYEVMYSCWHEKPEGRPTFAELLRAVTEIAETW
Procedure, shortened: as §1

WEE1 = target: T29, WEE1 (Homo sapiens, UniProt P30291); settings: WEE1, 1 µM; read-out: Residual Activity (%)
T29 construct: purchased ProQinase
Procedure, shortened: as §1

In the case of `COc1ccc(-c2cc(C(=O)Nc3cc(-c4c(-c5ccc(F)cc5)noc4C(C)C)ccn3)n(CC3NCC(O)C3O)c2)cc1` (centres unmarked) [29d], the remaining activity at 1 µM (ACV-R1B) is reported as 103%, the remaining activity at 1 µM (AKT3 aa106-479) is reported as 95% and the remaining activity at 1 µM (AMPK-alpha1 aa1-550) is reported as 99%. It also gave a remaining activity at 1 µM (BRK) of 131%, a remaining activity at 1 µM (BTK) of 112% and a remaining activity at 1 µM (CDK5/p35NCK) of 100%. It also gave a remaining activity at 1 µM (CDK6/CycD3) of 98%, a remaining activity at 1 µM (CK2-alpha1) of 103% and a remaining activity at 1 µM (DAPK2) of 96%. It also gave a remaining activity at 1 µM (DYRK2) of 96%, a remaining activity at 1 µM (EGF-R) of 108% and a remaining activity at 1 µM (EPHB1) of 108%. The remaining activity at 1 µM (FRK) was 94%, the remaining activity at 1 µM (HIPK1) was 98% and the remaining activity at 1 µM (MAPKAPK2) was 96%. It also gave a remaining activity at 1 µM (MKK6 S207D/T211D**) of 91%, a remaining activity at 1 µM (MST2) of 85% and a remaining activity at 1 µM (PAK4) of 92%. The remaining activity at 1 µM (PDK1) was 93%, the remaining activity at 1 µM (PKC-epsilon) was 84% and the remaining activity at 1 µM (PKC-eta) was 113%. For the same compound, the remaining activity at 1 µM (PLK1) was 98%, the remaining activity at 1 µM (SGK2) was 101% and the remaining activity at 1 µM (SIK1) was 92%. The remaining activity at 1 µM (STK25) was 98%, the remaining activity at 1 µM (TGFB-R1) was 102% and the remaining activity at 1 µM (TSK2) was 99%. For the same compound, the remaining activity at 1 µM (TXK) was 119% and the remaining activity at 1 µM (WEE1) was 95%.
